Measured values from patent US10358434B2, “2-(3-pyridinyl)-1H-benzimidazole derivative compound and medicament containing same” (NIHON MEDI-PHYSICS CO., LTD., priority 2014, dated 2019).

What was measured:
[1] = In vivo kinetics experiment (radioactivity distribution); set-up: species or system Wistar male rat; details: rat i.v., mean ± SD
Method in brief: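 Male Wistar rats (9 weeks) under isoflurane received approximately 1 to 3.7 MBq radiotracer in saline with 1 w/v % ascorbic acid by tail-vein injection. At 10, 30 and 60 min, rats were exsanguinated; blood, organs and remaining body weighed and counted, giving % ID/g and adrenal-to-tissue ratios.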

[2] = Plasma stability evaluation (TLC analysis); type: in vitro ADME; details: 37° C., 60 minutes, TLC analysis
Method in brief: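 Radiolabelled compounds were incubated in heparin-treated pooled normal human plasma at 37° C for 60 minutes. After methanol deproteinization and centrifugation, stability was assessed by TLC under the conditions used for each compound's synthesis.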

[3] = test system: human adrenal gland section expressing aldosterone-producing adenoma; test: In vitro autoradiography using human adrenal adenoma; type: binding; details: section of FIG. 17(b)
Method in brief: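 Frozen 7-μm sections of human adrenal bearing aldosterone-producing adenoma were immersed 10 min in radioligand (5-33 kBq/mL) in PBS with 1% fatty-acid-free BSA, washed, then exposed to imaging plates for 16-20 h. Equal-area ROI PSL in adenoma (B2) versus normal cortex (B1) gave B2/B1, corrected for nuclide half-life, added activity and exposure time.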

Structure (SMILES): Cn1c(-c2cncc(Cn3ccnc3)c2)nc2ccc([123I])cc21 [[^123I] 607, 2-[5-{(1H-imidazol-1-yl)methyl}pyridin-3-yl]-6-[^123I]iodo-1-methyl-1H-benzo[d]imidazole]
- Adrenal gland/blood ratio of radioactivity accumulation ([1]; 10 min after administration): 64.15 ± 4.03
- Adrenal gland/fat ratio of radioactivity accumulation ([1]; 10 min after administration): 92.36 ± 15.53
- Adrenal gland/kidney ratio of radioactivity accumulation ([1]; 10 min after administration): 5.73 ± 1.00
- Adrenal gland/liver ratio of radioactivity accumulation ([1]; 10 min after administration): 3.85 ± 0.67
- Adrenal gland/muscle ratio of radioactivity accumulation ([1]; 10 min after administration): 64.58 ± 8.21
- Adrenal gland/small intestine ratio of radioactivity accumulation ([1]; 10 min after administration): 3.95 ± 0.40
- Radioactivity distribution Adrenal gland ([1]; 10 min after administration): 11.13 ± 0.88 % ID/g
- Radioactivity distribution Bladder (including urine) ([1]; 10 min after administration): 1.20 ± 0.71 % ID/g
- Radioactivity distribution Blood ([1]; 10 min after administration): 0.17 ± 0.02 % ID/g
- Radioactivity distribution Fat ([1]; 10 min after administration): 0.12 ± 0.02 % ID/g
- Radioactivity distribution Femur ([1]; 10 min after administration): 0.86 ± 0.02 % ID/g
- Radioactivity distribution Heart ([1]; 10 min after administration): 0.66 ± 0.03 % ID/g
- Radioactivity distribution Kidney ([1]; 10 min after administration): 1.96 ± 0.19 % ID/g
- Radioactivity distribution Large intestine ([1]; 10 min after administration): 0.12 ± 0.02 % ID/g
- Radioactivity distribution Liver ([1]; 10 min after administration): 2.93 ± 0.40 % ID/g
- Radioactivity distribution Lung ([1]; 10 min after administration): 0.90 ± 0.07 % ID/g
- Radioactivity distribution Muscle (lower limbs) ([1]; 10 min after administration): 0.17 ± 0.02 % ID/g
- Radioactivity distribution Remaining whole body ([1]; 10 min after administration): 0.27 ± 0.03 % ID/g
- Radioactivity distribution Small intestine ([1]; 10 min after administration): 2.82 ± 0.12 % ID/g
- Radioactivity distribution Spleen ([1]; 10 min after administration): 4.93 ± 0.56 % ID/g
- Radioactivity distribution Stomach ([1]; 10 min after administration): 0.88 ± 0.20 % ID/g
- Radioactivity distribution Testis ([1]; 10 min after administration): 0.06 ± 0.01 % ID/g
- Radioactivity distribution Whole brain ([1]; 10 min after administration): 0.03 ± 0.00 % ID/g
- Adrenal gland/blood ratio of radioactivity accumulation ([1]; 30 min after administration): 163.89 ± 22.78
- Adrenal gland/fat ratio of radioactivity accumulation ([1]; 30 min after administration): 109.60 ± 14.02
- Adrenal gland/kidney ratio of radioactivity accumulation ([1]; 30 min after administration): 12.63 ± 4.53
- Adrenal gland/liver ratio of radioactivity accumulation ([1]; 30 min after administration): 15.55 ± 2.37
- Adrenal gland/muscle ratio of radioactivity accumulation ([1]; 30 min after administration): 114.11 ± 13.20
- Adrenal gland/small intestine ratio of radioactivity accumulation ([1]; 30 min after administration): 2.89 ± 0.23
- Radioactivity distribution Adrenal gland ([1]; 30 min after administration): 14.61 ± 1.60 % ID/g
- Radioactivity distribution Bladder (including urine) ([1]; 30 min after administration): 2.79 ± 0.51 % ID/g
- Radioactivity distribution Blood ([1]; 30 min after administration): 0.09 ± 0.00 % ID/g
- Radioactivity distribution Fat ([1]; 30 min after administration): 0.13 ± 0.01 % ID/g
- Radioactivity distribution Femur ([1]; 30 min after administration): 0.98 ± 0.16 % ID/g
- Radioactivity distribution Heart ([1]; 30 min after administration): 0.54 ± 0.05 % ID/g
- Radioactivity distribution Kidney ([1]; 30 min after administration): 1.24 ± 0.36 % ID/g
- Radioactivity distribution Large intestine ([1]; 30 min after administration): 0.12 ± 0.01 % ID/g
- Radioactivity distribution Liver ([1]; 30 min after administration): 0.94 ± 0.06 % ID/g
- Radioactivity distribution Lung ([1]; 30 min after administration): 0.72 ± 0.05 % ID/g
- Radioactivity distribution Muscle (lower limbs) ([1]; 30 min after administration): 0.13 ± 0.00 % ID/g
- Radioactivity distribution Remaining whole body ([1]; 30 min after administration): 0.27 ± 0.03 % ID/g
- Radioactivity distribution Small intestine ([1]; 30 min after administration): 5.06 ± 0.42 % ID/g
- Radioactivity distribution Spleen ([1]; 30 min after administration): 6.69 ± 1.24 % ID/g
- Radioactivity distribution Stomach ([1]; 30 min after administration): 1.17 ± 0.29 % ID/g
- Radioactivity distribution Testis ([1]; 30 min after administration): 0.09 ± 0.02 % ID/g
- Radioactivity distribution Whole brain ([1]; 30 min after administration): 0.02 ± 0.00 % ID/g
- Adrenal gland/blood ratio of radioactivity accumulation ([1]; 60 min after administration): 241.20 ± 39.48
- Adrenal gland/fat ratio of radioactivity accumulation ([1]; 60 min after administration): 194.91 ± 44.02
- Adrenal gland/kidney ratio of radioactivity accumulation ([1]; 60 min after administration): 18.18 ± 3.94
- Adrenal gland/liver ratio of radioactivity accumulation ([1]; 60 min after administration): 27.59 ± 4.15
- Adrenal gland/muscle ratio of radioactivity accumulation ([1]; 60 min after administration): 177.15 ± 43.41
- Adrenal gland/small intestine ratio of radioactivity accumulation ([1]; 60 min after administration): 3.39 ± 0.53
- Radioactivity distribution Adrenal gland ([1]; 60 min after administration): 18.47 ± 2.05 % ID/g
- Radioactivity distribution Bladder (including urine) ([1]; 60 min after administration): 2.99 ± 1.26 % ID/g
- Radioactivity distribution Blood ([1]; 60 min after administration): 0.08 ± 0.01 % ID/g
- Radioactivity distribution Fat ([1]; 60 min after administration): 0.10 ± 0.02 % ID/g
- Radioactivity distribution Femur ([1]; 60 min after administration): 1.17 ± 0.10 % ID/g
- Radioactivity distribution Heart ([1]; 60 min after administration): 0.43 ± 0.08 % ID/g
- Radioactivity distribution Kidney ([1]; 60 min after administration): 1.04 ± 0.19 % ID/g
- Radioactivity distribution Large intestine ([1]; 60 min after administration): 0.16 ± 0.03 % ID/g
- Radioactivity distribution Liver ([1]; 60 min after administration): 0.67 ± 0.04 % ID/g
- Radioactivity distribution Lung ([1]; 60 min after administration): 0.65 ± 0.15 % ID/g
- Radioactivity distribution Muscle (lower limbs) ([1]; 60 min after administration): 0.11 ± 0.02 % ID/g
- Radioactivity distribution Remaining whole body ([1]; 60 min after administration): 0.26 ± 0.01 % ID/g
- Radioactivity distribution Small intestine ([1]; 60 min after administration): 5.48 ± 0.49 % ID/g
- Radioactivity distribution Spleen ([1]; 60 min after administration): 6.95 ± 0.95 % ID/g
- Radioactivity distribution Stomach ([1]; 60 min after administration): 1.52 ± 0.61 % ID/g
- Radioactivity distribution Testis ([1]; 60 min after administration): 0.11 ± 0.02 % ID/g
- Radioactivity distribution Whole brain ([1]; 60 min after administration): 0.02 ± 0.00 % ID/g
- Radiochemical purity after incubation in human plasma [2]: 84%
- B2/B1 accumulation ratio [3]: 0.90
- B2 (PSL value, aldosterone-producing adenoma) ([3]; site 71b): 5332
- B1 (PSL value, normal adrenal cortex) ([3]; site 72b): 5945
